From patent publication US9529131B2, “Polarizing plate” (NITTO DENKO CORPORATION, priority 2014, dated 2016)

Assay: log P value (octanol/water partition coefficient)
Conditions: for log P: shake flask method JIS Z 7260 or ChemDraw Ultra calculation, not stated which

Compound	log P	logP
C=CC(=O)OCCCCCCCCCCOC(=O)C=C [1,10-decanediol diacrylate]	4.10	
CSc1ccc(C(=O)C(C)(C)N2CCOCC2)cc1 [IRGACURE 907, 2-methyl-1-(4-methylthiophenyl)-2-morpholinopropan-1-one]	2.09	
C=CC(=O)OCCN=C=O [Karenz AOI]	1.6	
C=CC(=O)OCCCCCCCCCOC(=O)C=C [LIGHT ACRYLATE 1,9ND-A, 1,9-nonanediol diacrylate]		3.68
C=CC(=O)OCC(C)OCC(C)OCC(C)OC(=O)C=C (stereo not drawn) [TPGDA, tripropylene glycol diacrylate]	1.68	
bisphenol A-propylene oxide (2 mole) adduct di(meth)acrylate	6.10	
